Source: PubChem BioAssay AID1918998 (Molecular Pharmacology Branch, DTP, NCI, 2023)

Tested on: 521955-158-R2-J5-PDC complex spheroid growth
Assay: Anticancer human tumor 521955-158-R2-J5-PDC patient-derived pancreatic carcinoma cell line growth inhibition [AhR]
Conditions: for IC50: curve of first compound; for viability, T/C: stronger effect = lower value
From the text: Multicellular complex tumor spheroid response to aryl hydrocarbon receptor antagonists in combination with a variety of drugs and investigational agents in selected tumor cell lines
The current study was undertaken to assess response to aryl hydrocarbon receptor antagonists in combination with standard-of-care drugs and investigational agents in solid tumor complex spheroid models. Complex spheroids include a stromal component modeled by human endothelial cells (HUVEC) and fibroblasts modeled by human mesenchymal stem cells (MSCs). The concentration ranges selected for each drug and investigational agent were based upon clinically achievable concentrations if the clinical Cmax of the agent was known.
Compounds. The drugs and investigational agents: BAY 2416964 (NSC825713), GNF351 (NSC835774), CH-223191 (NSC835775), CPI-455 (NSC825282), aza-TdCyd (NSC777586), decitabine (NSC127716), belinostat (NSC758774), entinostat (NSC756642), pevonedistat (NSC761192), tazemetostat (NSC777109), talazoparib (NSC765396), olaparib (NSC753686), selinexor (NSC780203), nedisertib (M3814, NSC802822), bortezomib (NSC756655), venetoclax (NSC766270), doxorubicin (NSC123127), elimusertib (BAY189344, NSC800525), ceralasertib (AZD6738, NSC777638), TAK-243 (NSC785004), alisertib (NSC759677), etoposide (NSC141540), topotecan (NSC609699), eribulin (NSC707389), gemcitabine (NSC613327), carboplatin (NSC241240), cisplatin (NSC119875), and SN-38 (NSC673596) were obtained from the National Cancer Institute (NCI) Developmental Therapeutics Program Chemical Repository (32). The FDA-approved anticancer drug set is available from the Developmental Therapeutics Program at https://dtp.cancer.gov/organization/dscb/obtaining/available plates.htm. […] The stock solutions were prepared in dimethyl sulfoxide (DMSO, Sigma-Aldrich, St. Louis, MO, cat. D2650), except for the platinum compounds which were prepared in saline (Quality Biological, Gaithersburg, MD, cat. 114-055-101), at 800-fold the tested concentration and stored at -70 degrees C prior to their use. All drugs and investigational agents were tested over a range starting from a high concentration at or near the clinical Cmax and decreasing in half-log increments. If the clinical Cmax for an agent had not been determined, the highest concentration tested was 10 microM (Table 1).
Cell Culture. All cells were maintained in an incubator at 37 degrees C and 5% CO2 with 95% humidity. The PDC lines were cultured according to standard operating procedures established by the NCI PDMR (https://pdmr.cancer.gov). Briefly, all PDCs were thawed and cultured in Matrigel-coated flasks prepared with a working solution of 1X Ham's F-12 nutrient mix, without supplementation (Invitrogen, Waltham, MA, cat. 11765054), 100 U/mL penicillin-streptomycin (Invitrogen, cat. 15140122), and 2.5% Matrigel (Corning Inc., Corning, NY, cat. 354248) for the first three passages. All PDCs were cultured in complete DMEM/F-12 media containing advanced DMEM/F-12 (Invitrogen, cat. 12634028), 4.9% defined fetal bovine serum, heat inactivated (HyClone Laboratories Inc., Logan, UT, cat. SH30070.03HI), 389 ng/mL hydrocortisone (Sigma-Aldrich, cat. H4001), 9.7 ng/mL human EGF recombinant protein (Invitrogen, cat. PHG0313), 23.4 microg/mL adenine (Sigma-Aldrich, cat. A2786), 97.3 U/mL penicillin-streptomycin (Invitrogen, cat. 15140122), 1.9 mM L-glutamine (Invitrogen, cat. 25030081), and 9.7 microM Y-27632 dihydrochloride (Tocris Bioscience, Bristol, United Kingdom, cat. 1254). The PDCs were cultured in complete DMEM/F12 media without 10 microM Y-27632 dihydrochloride for at least two passages prior to the screen. The established cell lines NCI-H1341 and […] were cultured in DMEM/F-12, HEPES (Invitrogen, cat. 11330032), 5% defined fetal bovine serum (HyClone Laboratories Inc., cat. SH30070.03), ITS premix universal culture supplement [insulin (5 microg/mL), transferrin (5 microg/mL), and selenious acid (5 ng/mL)] […]

[1] = second compound 0.1 µM, first compound 0.0316 µM
[2] = second compound 0.1 µM, first compound 0.1 µM
[3] = second compound 0.1 µM, first compound 0.316 µM
[4] = second compound 0.1 µM, first compound 1 µM
[5] = second compound 0.1 µM, first compound 3.16 µM
[6] = second compound 0.1 µM, first compound 10 µM
[7] = second compound 0.316 µM, first compound 0.0316 µM
[8] = second compound 0.316 µM, first compound 0.1 µM
[9] = second compound 0.316 µM, first compound 0.316 µM
[10] = second compound 0.316 µM, first compound 1 µM
[11] = second compound 0.316 µM, first compound 3.16 µM
[12] = second compound 0.316 µM, first compound 10 µM
[13] = second compound 1 µM, first compound 0.0316 µM
[14] = second compound 1 µM, first compound 0.1 µM
[15] = second compound 1 µM, first compound 0.316 µM
[16] = second compound 1 µM, first compound 1 µM
[17] = second compound 1 µM, first compound 3.16 µM
[18] = second compound 1 µM, first compound 10 µM
[19] = second compound 3.16 µM, first compound 0.0316 µM
[20] = second compound 3.16 µM, first compound 0.1 µM
[21] = second compound 3.16 µM, first compound 0.316 µM
[22] = second compound 3.16 µM, first compound 1 µM
[23] = second compound 3.16 µM, first compound 3.16 µM
[24] = second compound 3.16 µM, first compound 10 µM
[25] = second compound 10 µM, first compound 0.0316 µM
[26] = second compound 10 µM, first compound 0.1 µM
[27] = second compound 10 µM, first compound 0.316 µM
[28] = second compound 10 µM, first compound 1 µM
[29] = second compound 10 µM, first compound 3.16 µM
[30] = second compound 10 µM, first compound 10 µM
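Throughout, for viability, T/C: spheroids mix tumor cells with HUVEC endothelium and human MSC stroma; luminescence taken as viability surrogate after a week of drug exposure.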

## Nc1ccn(C2OC(CO)C(O)C2(F)F)c(=O)n1 (stereo not given) + Cc1ccccc1N=Nc1ccc(NC(=O)c2ccnn2C)c(C)c1
Second compound 0.1 µM
  IC50: 267 nM
Second compound 0.316 µM
  IC50: 501 nM
Second compound 1 µM
  IC50: 448 nM
Second compound 3.16 µM
  IC50: 405 nM
Second compound 10 µM
  IC50: 338 nM
[1]
  viability, T/C: 76.7%
[2]
  viability, T/C: 52.4%
[3]
  viability, T/C: 57%
[4]
  viability, T/C: 28.4%
[5]
  viability, T/C: 13.3%
[6]
  viability, T/C: 14.5%
[7]
  viability, T/C: 66.8%
[8]
  viability, T/C: 52.7%
[9]
  viability, T/C: 85.8%
[10]
  viability, T/C: 22.3%
[11]
  viability, T/C: 13.5%
[12]
  viability, T/C: 12.5%
[13]
  viability, T/C: 66.5%
[14]
  viability, T/C: 52.5%
[15]
  viability, T/C: 71.2%
[16]
  viability, T/C: 19.2%
[17]
  viability, T/C: 13.5%
[18]
  viability, T/C: 12.4%
[19]
  viability, T/C: 91.2%
[20]
  viability, T/C: 69.1%
[21]
  viability, T/C: 62.3%
[22]
  viability, T/C: 21.8%
[23]
  viability, T/C: 13.2%
[24]
  viability, T/C: 14.4%
[25]
  viability, T/C: 107%
[26]
  viability, T/C: 93.8%
[27]
  viability, T/C: 52.1%
[28]
  viability, T/C: 21.6%
[29]
  viability, T/C: 17.8%
[30]
  viability, T/C: 15.6%

## COc1cccc2c1C(=O)c1c(O)c3c(c(O)c1C2=O)CC(O)(C(=O)CO)CC3OC1CC(N)C(O)C(C)O1 (stereo not given) + CC(CO)NC(=O)c1cc(-c2ccc(Cl)cc2)nn(-c2cnn(C)c2)c1=O
Second compound 0.1 µM
  IC50: < 31.6 nM
Second compound 0.316 µM
  IC50: 50.1 nM
Second compound 1 µM
  IC50: 53.3 nM
Second compound 3.16 µM
  IC50: < 31.6 nM
Second compound 10 µM
  IC50: 38.7 nM
[1]
  viability, T/C: 49.1%
[2]
  viability, T/C: 45.1%
[3]
  viability, T/C: 28%
[4]
  viability, T/C: 2.42%
[5]
  viability, T/C: 7.75%
[6]
  viability, T/C: 13.9%
[7]
  viability, T/C: 54.6%
[8]
  viability, T/C: 42.6%
[9]
  viability, T/C: 24.5%
[10]
  viability, T/C: 2.21%
[11]
  viability, T/C: 5.07%
[12]
  viability, T/C: 13.4%
[13]
  viability, T/C: 56.4%
[14]
  viability, T/C: 41.7%
[15]
  viability, T/C: 24.1%
[16]
  viability, T/C: 9.29%
[17]
  viability, T/C: 2.9%
[18]
  viability, T/C: 14.6%
[19]
  viability, T/C: 50.7%
[20]
  viability, T/C: 41.8%
[21]
  viability, T/C: 25.8%
[22]
  viability, T/C: 8.77%
[23]
  viability, T/C: 7.63%
[24]
  viability, T/C: 14%
[25]
  viability, T/C: 52.9%
[26]
  viability, T/C: 37%
[27]
  viability, T/C: 18.7%
[28]
  viability, T/C: 6.31%
[29]
  viability, T/C: 6.29%
[30]
  viability, T/C: 13.8%

## COc1ccc([C@@H](O)c2cc(-c3ncnc4cc(N5CCOCC5)ccc34)c(F)cc2Cl)nn1 + Cc1cncc(-c2nc(NCCc3c[nH]c4ccccc34)c3ncn(C(C)C)c3n2)c1
Second compound 0.1 µM
  IC50: > 10000 nM
Second compound 0.316 µM
  IC50: > 10000 nM
Second compound 1 µM
  IC50: > 10000 nM
Second compound 3.16 µM
  IC50: > 10000 nM
Second compound 10 µM
  IC50: > 10000 nM
[1]
  viability, T/C: 102%
[2]
  viability, T/C: 102%
[3]
  viability, T/C: 99.7%
[4]
  viability, T/C: 78.1%
[5]
  viability, T/C: 65.8%
[6]
  viability, T/C: 50.8%
[7]
  viability, T/C: 118%
[8]
  viability, T/C: 116%
[9]
  viability, T/C: 113%
[10]
  viability, T/C: 85.1%
[11]
  viability, T/C: 75.1%
[12]
  viability, T/C: 54.4%
[13]
  viability, T/C: 115%
[14]
  viability, T/C: 127%
[15]
  viability, T/C: 113%
[16]
  viability, T/C: 104%
[17]
  viability, T/C: 83.3%
[18]
  viability, T/C: 61.6%
[19]
  viability, T/C: 134%
[20]
  viability, T/C: 153%
[21]
  viability, T/C: 130%
[22]
  viability, T/C: 111%
[23]
  viability, T/C: 96.3%
[24]
  viability, T/C: 65.9%
[25]
  viability, T/C: 138%
[26]
  viability, T/C: 131%
[27]
  viability, T/C: 175%
[28]
  viability, T/C: 114%
[29]
  viability, T/C: 62.9%
[30]
  viability, T/C: 46.6%

## CC[C@@]1(O)C(=O)OCc2c1cc1n(c2=O)Cc2cc3c(CN(C)C)c(O)ccc3nc2-1 + CC(CO)NC(=O)c1cc(-c2ccc(Cl)cc2)nn(-c2cnn(C)c2)c1=O
Second compound 0.1 µM
  IC50: 32.3 nM
Second compound 0.316 µM
  IC50: 36.7 nM
Second compound 1 µM
  IC50: 28 nM
Second compound 3.16 µM
  IC50: 22 nM
Second compound 10 µM
  IC50: 19.9 nM
Second compound 0.1 µM, first compound 0.000316 µM
  viability, T/C: 99.8%
Second compound 0.1 µM, first compound 0.001 µM
  viability, T/C: 91.6%
Second compound 0.1 µM, first compound 0.00316 µM
  viability, T/C: 110%
Second compound 0.1 µM, first compound 0.01 µM
  viability, T/C: 82.5%
[1]
  viability, T/C: 51.8%
[2]
  viability, T/C: 16%
Second compound 0.316 µM, first compound 0.000316 µM
  viability, T/C: 112%
Second compound 0.316 µM, first compound 0.001 µM
  viability, T/C: 109%
Second compound 0.316 µM, first compound 0.00316 µM
  viability, T/C: 89.8%
Second compound 0.316 µM, first compound 0.01 µM
  viability, T/C: 82.5%
[7]
  viability, T/C: 57.4%
[8]
  viability, T/C: 13.3%
Second compound 1 µM, first compound 0.000316 µM
  viability, T/C: 93%
Second compound 1 µM, first compound 0.001 µM
  viability, T/C: 104%
Second compound 1 µM, first compound 0.00316 µM
  viability, T/C: 106%
Second compound 1 µM, first compound 0.01 µM
  viability, T/C: 86.5%
[13]
  viability, T/C: 46.1%
[14]
  viability, T/C: 20.1%
Second compound 3.16 µM, first compound 0.000316 µM
  viability, T/C: 99.2%
Second compound 3.16 µM, first compound 0.001 µM
  viability, T/C: 102%
Second compound 3.16 µM, first compound 0.00316 µM
  viability, T/C: 91.8%
Second compound 3.16 µM, first compound 0.01 µM
  viability, T/C: 75.4%
[19]
  viability, T/C: 38.3%
[20]
  viability, T/C: 19.2%
Second compound 10 µM, first compound 0.000316 µM
  viability, T/C: 76.5%
Second compound 10 µM, first compound 0.001 µM
  viability, T/C: 86.3%
Second compound 10 µM, first compound 0.00316 µM
  viability, T/C: 85.6%
Second compound 10 µM, first compound 0.01 µM
  viability, T/C: 71.6%
[25]
  viability, T/C: 35.3%
[26]
  viability, T/C: 17.9%
